± gives the expanded uncertainty stated by the source.
Conditions: Liquid, Buoyancy - hydrostatic balance with magnetic suspension - one sinker

Work on `CCCCCCCCCCC` [undecane] yielded a mass density (313.17 K, 19009 kPa) of 741.21 ± 0.33 kg/m3, a mass density (313.18 K, 9997 kPa) of 734.69 ± 0.33 kg/m3 and a mass density (313.19 K, 12016 kPa) of 736.18 ± 0.33 kg/m3. For the same compound, the mass density (313.19 K, 18013 kPa) was 740.5 ± 0.33 kg/m3, the mass density (313.22 K, 14009 kPa) was 737.62 ± 0.33 kg/m3 and the mass density (313.23 K, 16006 kPa) was 739.05 ± 0.33 kg/m3. It also gave a mass density (313.24 K, 8029 kPa) of 733.14 ± 0.33 kg/m3, a mass density (323.18 K, 19002 kPa) of 734.54 ± 0.33 kg/m3 and a mass density (323.19 K, 16026 kPa) of 732.35 ± 0.33 kg/m3. It also gave a mass density (323.19 K, 17995 kPa) of 733.8 ± 0.33 kg/m3, a mass density (323.22 K, 10009 kPa) of 727.67 ± 0.33 kg/m3 and a mass density (323.23 K, 12003 kPa) of 729.24 ± 0.33 kg/m3. The mass density (323.23 K, 14022 kPa) was 730.8 ± 0.33 kg/m3, the mass density (323.24 K, 7997 kPa) was 726.03 ± 0.33 kg/m3 and the mass density (333.12 K, 16003 kPa) was 725.32 ± 0.33 kg/m3. The mass density (333.12 K, 17990 kPa) was 726.87 ± 0.33 kg/m3, the mass density (333.13 K, 12007 kPa) was 722.07 ± 0.33 kg/m3 and the mass density (333.14 K, 8001 kPa) was 718.68 ± 0.33 kg/m3. The mass density (333.14 K, 19027 kPa) was 727.66 ± 0.33 kg/m3, the mass density (333.15 K, 14012 kPa) was 723.7 ± 0.33 kg/m3 and the mass density (333.16 K, 10001 kPa) was 720.38 ± 0.33 kg/m3. The mass density (343.25 K, 13005 kPa) was 716 ± 0.33 kg/m3, the mass density (343.25 K, 16996 kPa) was 719.36 ± 0.33 kg/m3 and the mass density (343.26 K, 11021 kPa) was 714.27 ± 0.33 kg/m3. For the same compound, the mass density (343.26 K, 14019 kPa) was 716.86 ± 0.33 kg/m3, the mass density (343.27 K, 15997 kPa) was 718.51 ± 0.33 kg/m3 and the mass density (343.27 K, 18006 kPa) was 720.27 ± 0.33 kg/m3. The mass density (343.28 K, 11999 kPa) was 715.12 ± 0.33 kg/m3, the mass density (343.28 K, 19019 kPa) was 720.98 ± 0.33 kg/m3 and the mass density (343.29 K, 7989 kPa) was 711.51 ± 0.33 kg/m3. The mass density (343.29 K, 9998 kPa) was 713.33 ± 0.33 kg/m3, the mass density (343.3 K, 14998 kPa) was 717.66 ± 0.33 kg/m3 and the mass density (353.16 K, 12003 kPa) was 708.19 ± 0.33 kg/m3. It also gave a mass density (353.31 K, 11002 kPa) of 707.25 ± 0.33 kg/m3, a mass density (353.31 K, 17012 kPa) of 712.63 ± 0.33 kg/m3 and a mass density (353.32 K, 13007 kPa) of 709.08 ± 0.33 kg/m3. The mass density (353.32 K, 14999 kPa) was 710.86 ± 0.33 kg/m3, the mass density (353.32 K, 19024 kPa) was 714.35 ± 0.33 kg/m3 and the mass density (353.33 K, 7993 kPa) was 704.36 ± 0.33 kg/m3. The mass density (353.33 K, 14003 kPa) was 709.98 ± 0.33 kg/m3, the mass density (353.33 K, 18010 kPa) was 713.48 ± 0.33 kg/m3 and the mass density (353.34 K, 16001 kPa) was 711.73 ± 0.33 kg/m3. The mass density (353.35 K, 9996 kPa) was 706.27 ± 0.33 kg/m3.
